Patent US9974727B2, “Hair growth and hair restoration material” (INSTITUTE OF RHEOLOGICAL FUNCTION OF FOOD CO., LTD., priority 2011, dated 2018)

Tests used:
Assay type in all cases: in vivo
C3H male mice = assay: Hair growth test on shaved backs of mice; settings: for Hair growth state 2 weeks after application: 20 μL on shaved back, mice with hair growth / mice
Description: The FCG obtained in Production Example 1, the SCG obtained in Production Example 2, the CSG obtained in Production Example 3, and the RSG obtained in Production Example 4 were each dissolved, in 70% by mass ethanol water, and the following solutions were prepared:
Furthermore, commercially available cholesterol (hereinafter, abbreviated as “Cho”) was dissolved in 70% by mass ethanol water to prepare a Cho 10 pg/mL solution.
The body hair on the back of 8 to 9-week-old C3H male mice was shaved using an electric clippers for animal use (“Thrive clipper, Model 600AD” manufactured by Daito Electric Company) together with a rotary shaver (National ES611).
Each of the sample solutions (20 μL) was applied in four portions to the skin in central parts of the shaved backs of mice while repeating air drying. The application was conducted 24 hours after shaving.
The hair growth effect was evaluated 2 weeks after the application of the sample solution on the basis of observation with the naked eye and photographs taken by a digital camera. Furthermore, as controls, mice applied with 70% by mass ethanol water and mice not applied with a sample solution were used.

[1] = system: shaved back skin of ICR male mice; assay: Preliminary test for hair growth using mice, HE staining of skin; settings: 10 pg/mL, 20 μL
Description: (§1) A 70% by mass aqueous ethanol solution containing FCG obtained in Production Example 1 at a concentration of 10 pg/mL (sample solution) was prepared.
(§2) The sample solution (20 μL) was applied onto the shaved back skin of four 9-week-old ICR male mice, and skin was collected after 3 hours and after 6 hours.
(§3) The skin was subjected to immunostaining for bFGF (basic fibroblast growth factor), Hsp70 (heat shock protein 70), and VEGF (vascular endothelial cell growth factor) by the fluorescent antibody technique and HE staining (hematoxylin-eosin staining), and samples of 14 μm-thick cryostat sections were prepared.

[2] = system: bFGF (basic fibroblast growth factor); assay: Preliminary test for hair growth using mice, bFGF immunostaining of skin
Description: as §1, §2, §3

[3] = system: VEGF (vascular endothelial cell growth factor); assay: Preliminary test for hair growth using mice, VEGF immunostaining of skin; settings: 10 pg/mL, 3 hours after application
Description: as §1, §2, §3

[4] = system: Hsp70 (heat shock protein 70); assay: Preliminary test for hair growth using mice, Hsp70 immunostaining of skin; settings: 10 pg/mL, 3 hours after application; hair papilla cells of hair root in telogen
Description: as §1, §2, §3

head hair = assay: Hair growth effect on human head hair; settings: person
Description: (§4) The hair growth effect of FCG on head hair of a person was examined.
After hair was thoroughly washed and dried completely with a dryer, about 3.5 mL of a 70% by mass aqueous ethanol solution (sample solution) containing FCG at a concentration of 10 pg/mL was evenly applied, to the scalp once a day.
Before use of the sample solution and 4 months after start of use, photographs were taken by a digital camera from the forehead and the top of head.
as §4
After hair was thoroughly washed and naturally dried completely, about 3.5 mL of a 70% by mass aqueous ethanol solution (sample solution) containing FCG at a concentration of 10 pg/mL was evenly applied to the scalp once a day.
On the date of start of use of the sample solution and 5 months after start of use, photographs of the forehead and the top of head were taken by a digital camera.

[5] = C3H mice, 2 weeks after application
[6] = 10 pg/mL, 6 hours after application
[7] = 10 pg/mL, about 3.5 mL once a day, 5 months after start of use

Structure (SMILES)	Hair growth state 2 weeks after application (C3H male mice; 1 pg/mL in 70% ethanol water)	Hair growth state 2 weeks after application (C3H male mice; 10 pg/mL in 70% ethanol water)	Hair growth state 2 weeks after application (C3H male mice; 100 pg/mL in 70% ethanol water)	Hair growth action (summary of Table 1) (C3H male mice; [5])	Death of mice during hair growth test (C3H male mice; 100 pg/mL, 2 weeks after application)	Hair growth action at 1 pg/mL compared with 10 pg/mL (C3H male mice; [5])	HE staining, hair root and hair bulb ([1]; 3 hours after application, one of two mice)	HE staining, hair root ([1]; 6 hours after application)	bFGF expression (immunostaining) ([2]; 10 pg/mL, 3 hours after application, hair follicle, epidermis, bulge region, external root sheath, erector pili muscles)	bFGF expression in erector pili muscles (immunostaining) [2, 6]	bFGF expression in hair papilla cells (immunostaining) [2, 6]	bFGF expression, conclusion ([2]; epidermis, external root sheath, bulge region, hair matrix)	VEGF expression (immunostaining) [3]	Hsp70 expression (immunostaining) [4]	Hair growth on forehead and top of head (head hair; 10 pg/mL, about 3.5 mL once a day, 4 months after start of use)	Hair growth on forehead (head hair; [7])	Hair growth on top of head (head hair; [7])	Side effects (head hair; one year after start of use)
CC(C)CCC[C@@H](C)[C@H]1CC[C@H]2[C@@H]3CC=C4C[C@@H](O[C@@H]5O[C@H](CO)[C@@H](O)[C@H](O)[C@H]5O)CC[C@]4(C)[C@H]3CC[C@]12C [SCG, cholesteryl-β-D-glucopyranoside]	6/8	⅝	⅜	same hair growth action as that of the cholesteryl glucopyranoside derived from feathers (FCG)														
CC(C)CCC[C@@H](C)[C@H]1CC[C@H]2[C@@H]3CC=C4C[C@@H](O)CC[C@]4(C)[C@H]3CC[C@]12C [Cho, cholesterol, reference compound]		4/8		weak														
CC(C)CCC[C@@H](C)[C@H]1CC[C@H]2[C@@H]3CC=C4C[C@@H](O[C@@H]5O[C@H](CO)[C@@H](O)[C@H](O)[C@H]5O)CC[C@]4(C)[C@H]3CC[C@]12C [FCG, cholesteryl glucopyranoside]	6/8	4/8	5/7		one mouse died	higher	local extension of the hair root and enlargement of the hair bulb were observed	Most of the hair roots extended to the subcutaneous tissue	Strong expression of bFGF was detected	reduced to moderate	became weak	expression of bFGF is induced	VEGF positive reaction was found in hair papilla cells in the hair matrix	Weak to moderate expression of Hsp70 was detected	a large amount of hair growth was observed	hair growth was observed	a good amount of hair growth was observed	side effects are not recognized
